Data reported in ChEMBL document CHEMBL1201862, “PubChem BioAssay data set” (2004).
Active and inactive are the calls of the source.

What was measured:
[1] = target: Estrogen receptor beta (Homo sapiens, UniProt Q92731);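 also: recombinant ER-beta bound to coactivator SRC1 peptide in presence of estradiol agonist; inhibitors block coactivator peptide binding and lower the FRET signal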
[2] = target: T1, Oxysterols receptor LXR-beta (Homo sapiens, UniProt P55055); test: LXR agonists, Gal4 luciferase reporter, dose response, counter-screen for ssDAF-12 agonist project, cell-based, luminescence, HEK293, S. stercoralis campaign (AID 720737); type: functional; conditions: read-out: IC50 (the source's name)
T1 sequence (P55055 whole entry): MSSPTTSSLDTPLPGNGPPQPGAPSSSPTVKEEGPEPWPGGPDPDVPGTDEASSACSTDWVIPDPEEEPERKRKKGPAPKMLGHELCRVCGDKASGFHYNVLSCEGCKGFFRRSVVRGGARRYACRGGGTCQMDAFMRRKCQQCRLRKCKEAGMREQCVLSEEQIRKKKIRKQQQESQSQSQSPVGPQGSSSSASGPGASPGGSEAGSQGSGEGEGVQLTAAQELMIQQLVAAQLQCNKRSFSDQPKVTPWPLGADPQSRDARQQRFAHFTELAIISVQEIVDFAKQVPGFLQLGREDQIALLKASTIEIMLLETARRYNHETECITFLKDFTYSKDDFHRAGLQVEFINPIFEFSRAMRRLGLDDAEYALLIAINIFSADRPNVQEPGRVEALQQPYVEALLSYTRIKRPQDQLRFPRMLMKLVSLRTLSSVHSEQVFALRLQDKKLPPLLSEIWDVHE

[3] = Luminescence-based cell-based high throughput dose response assay to identify activators of the DAF-12 from the parasite S. stercoralis (ssDAF-12).; type: functional
[4] = target: T2, Glutathione-S-transferase (Schistosoma japonicum, UniProt Q26513); test: GST-antibody interaction or FRET quenching – biochemical, TR-FRET, artefact control for Vif-APOBEC3G degradation inhibitor project, dose response (AID 1117362); type: functional
T2 sequence (Q26513 whole entry): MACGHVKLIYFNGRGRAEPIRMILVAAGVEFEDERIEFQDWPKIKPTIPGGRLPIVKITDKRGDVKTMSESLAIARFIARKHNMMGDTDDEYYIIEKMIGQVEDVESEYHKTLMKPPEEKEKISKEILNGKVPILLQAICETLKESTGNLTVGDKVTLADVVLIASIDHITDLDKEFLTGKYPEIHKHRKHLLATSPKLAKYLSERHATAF

[5] = target: FAD-linked sulfhydryl oxidase ALR (Homo sapiens, UniProt P55789); test: ALR-catalysed DTT oxidation blockers – biochemical, H2O2 detection, luminescence, cherry-pick, dose response (AID 493248)
FAD-linked sulfhydryl oxidase ALR, sequence (P55789 whole entry): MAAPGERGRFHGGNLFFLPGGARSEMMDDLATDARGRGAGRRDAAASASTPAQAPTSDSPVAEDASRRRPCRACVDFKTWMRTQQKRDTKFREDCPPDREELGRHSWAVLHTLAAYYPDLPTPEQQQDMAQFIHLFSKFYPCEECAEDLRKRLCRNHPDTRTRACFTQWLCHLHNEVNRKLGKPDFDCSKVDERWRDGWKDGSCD

[6] = Trypanosoma cruzi growth suppression in host cells – NIH3T3 host cells, beta-gal luminescence, confirmation (AID 2044); type: functional, cell-based;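 also: intracellular parasites grown in NIH/3T3 mouse fibroblasts as host cells; luminescent beta-galactosidase reporter signal from transgenic T. cruzi replicating inside host cells; inhibitors lower the luminescence signal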
[7] = NIH3T3 cell viability loss – ATP luminescence, mouse fibroblasts, counter-screen, dose response (AID 2010); type: functional, cell-based;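 also: cells exposed to compound for about 90 hours before reading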
[8] = viability loss in THP-1 monocytes – THP-1 cells, cytotoxicity control for Vif-APOBEC3G degradation inhibitor project, dose response (AID 1117359); type: functional; conditions: THP-1
[9] = target: T3, DNA repair protein RAD52 homolog (Homo sapiens, UniProt P43351); type: functional, biochemical
T3 sequence (P43351 whole entry): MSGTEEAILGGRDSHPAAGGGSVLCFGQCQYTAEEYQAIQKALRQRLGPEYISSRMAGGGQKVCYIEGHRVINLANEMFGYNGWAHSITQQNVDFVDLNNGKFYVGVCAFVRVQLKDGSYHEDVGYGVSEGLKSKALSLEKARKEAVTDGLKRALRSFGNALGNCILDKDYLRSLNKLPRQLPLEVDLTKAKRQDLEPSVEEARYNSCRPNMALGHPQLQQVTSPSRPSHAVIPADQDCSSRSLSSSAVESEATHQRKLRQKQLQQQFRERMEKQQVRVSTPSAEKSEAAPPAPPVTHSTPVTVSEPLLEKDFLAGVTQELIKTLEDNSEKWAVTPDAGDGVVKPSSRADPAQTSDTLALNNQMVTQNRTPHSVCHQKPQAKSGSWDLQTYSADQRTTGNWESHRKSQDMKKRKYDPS

[10] = target: T4, Caspase-6 (Homo sapiens, UniProt P55212); test: inhibition of CASP6 peptide cleavage – biochemical, VEID-R110 fluorescence, cherry-pick, dose response (AID 720632)
T4 sequence (P55212 whole entry): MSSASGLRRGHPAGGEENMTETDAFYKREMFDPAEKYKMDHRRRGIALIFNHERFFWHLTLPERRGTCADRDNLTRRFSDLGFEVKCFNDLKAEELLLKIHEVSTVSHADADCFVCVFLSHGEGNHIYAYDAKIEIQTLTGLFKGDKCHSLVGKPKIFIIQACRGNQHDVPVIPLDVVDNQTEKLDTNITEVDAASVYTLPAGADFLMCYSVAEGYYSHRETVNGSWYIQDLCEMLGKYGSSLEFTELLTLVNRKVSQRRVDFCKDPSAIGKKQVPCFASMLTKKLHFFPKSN

[11] = target: T5, Histone-lysine N-methyltransferase NSD2 (Homo sapiens, UniProt O96028); type: biochemical
T5 sequence (O96028 whole entry): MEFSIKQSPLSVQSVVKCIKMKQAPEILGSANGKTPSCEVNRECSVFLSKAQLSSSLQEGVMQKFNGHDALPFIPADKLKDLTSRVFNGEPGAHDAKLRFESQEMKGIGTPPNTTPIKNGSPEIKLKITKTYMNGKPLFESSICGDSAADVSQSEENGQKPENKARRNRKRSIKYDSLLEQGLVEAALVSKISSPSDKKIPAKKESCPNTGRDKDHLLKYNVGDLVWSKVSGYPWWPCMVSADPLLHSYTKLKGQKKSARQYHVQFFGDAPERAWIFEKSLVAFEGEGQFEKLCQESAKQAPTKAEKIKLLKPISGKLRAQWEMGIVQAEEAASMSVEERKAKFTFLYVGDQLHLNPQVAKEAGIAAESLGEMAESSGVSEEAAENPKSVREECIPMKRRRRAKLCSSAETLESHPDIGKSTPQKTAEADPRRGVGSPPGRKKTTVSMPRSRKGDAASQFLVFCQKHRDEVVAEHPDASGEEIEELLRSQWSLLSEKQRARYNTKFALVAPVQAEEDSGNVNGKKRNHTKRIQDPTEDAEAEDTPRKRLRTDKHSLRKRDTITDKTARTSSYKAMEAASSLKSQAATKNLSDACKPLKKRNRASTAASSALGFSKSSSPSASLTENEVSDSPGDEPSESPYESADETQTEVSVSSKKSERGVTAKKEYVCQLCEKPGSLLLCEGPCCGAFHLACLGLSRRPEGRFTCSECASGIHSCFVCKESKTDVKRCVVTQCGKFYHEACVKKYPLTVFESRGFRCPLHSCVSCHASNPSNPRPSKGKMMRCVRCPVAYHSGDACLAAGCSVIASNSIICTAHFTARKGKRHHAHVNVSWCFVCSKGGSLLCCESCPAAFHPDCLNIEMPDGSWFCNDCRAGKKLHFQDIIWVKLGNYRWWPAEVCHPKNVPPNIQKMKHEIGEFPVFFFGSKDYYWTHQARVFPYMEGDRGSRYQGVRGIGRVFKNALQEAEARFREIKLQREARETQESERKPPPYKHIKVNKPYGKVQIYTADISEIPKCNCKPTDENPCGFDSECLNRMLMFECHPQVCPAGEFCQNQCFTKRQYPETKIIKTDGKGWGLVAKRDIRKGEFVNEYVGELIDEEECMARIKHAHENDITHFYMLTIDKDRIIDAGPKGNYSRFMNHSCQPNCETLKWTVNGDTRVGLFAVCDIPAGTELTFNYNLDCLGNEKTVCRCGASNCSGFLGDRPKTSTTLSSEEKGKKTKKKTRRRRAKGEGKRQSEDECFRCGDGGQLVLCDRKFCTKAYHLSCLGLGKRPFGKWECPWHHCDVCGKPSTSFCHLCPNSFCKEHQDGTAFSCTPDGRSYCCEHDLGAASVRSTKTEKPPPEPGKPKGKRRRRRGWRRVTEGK

Estrogen receptor beta, sequence (Q92731 whole entry, the tested form may be a part): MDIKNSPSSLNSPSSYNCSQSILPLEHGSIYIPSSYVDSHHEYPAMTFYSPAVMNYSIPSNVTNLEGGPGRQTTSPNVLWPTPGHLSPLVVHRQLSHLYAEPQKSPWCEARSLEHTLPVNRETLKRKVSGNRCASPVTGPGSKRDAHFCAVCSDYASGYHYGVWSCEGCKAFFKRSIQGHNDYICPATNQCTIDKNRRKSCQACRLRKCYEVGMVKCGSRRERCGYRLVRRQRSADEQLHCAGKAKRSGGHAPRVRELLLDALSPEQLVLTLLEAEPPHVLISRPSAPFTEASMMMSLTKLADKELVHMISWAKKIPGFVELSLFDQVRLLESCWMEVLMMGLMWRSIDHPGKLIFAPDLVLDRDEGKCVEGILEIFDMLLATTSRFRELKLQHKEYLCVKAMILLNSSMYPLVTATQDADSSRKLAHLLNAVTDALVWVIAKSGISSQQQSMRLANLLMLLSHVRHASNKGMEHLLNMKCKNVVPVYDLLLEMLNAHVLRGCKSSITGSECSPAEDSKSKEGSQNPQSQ

SMILES: CCSc1nnc(Cc2cc(=O)[nH]c(=O)[nH]2)n1-c1cc(C)ccc1C
- IC50 [1]: > 50 µM (not active)

SMILES: C=CCn1c(COc2ccc(OC)cc2)nnc1SCn1nnc2ccccc2c1=O
- EC50 [2]: > 67.6 µM (inactive)
- IC50 [3]: > 67.6 µM (inactive)

SMILES: CC1(C)CC(Nc2ccc(Nc3ccccc3)cc2)CC(C)(C)N1
- IC50 [4]: 64.5 µM (active)
- AC50 [5]: 0.27 µM (active)
- EC50 [6]: 4.14 µM (active)
- EC50 [7]: > 60 µM (not active)
- CC50 [8]: > 40 µM (active)
- AC50 [9]: 13.9 µM (active)

SMILES: Cc1cc(/C=C\c2nc(O)c([N+](=O)[O-])c(O)n2)c(C)n1-c1ccccc1
- AC50 [10]: 19.2 µM (active)
- AC50 [11]: > 20 µM (inactive)
